From patent publication US9481676B2, “Azepino[4,5-B]indoles and methods of use” (Medivation Technologies, Inc., priority 2008, dated 2016)

The molecules below were run against T1, human recombinant adrenergic α2B receptor (Homo sapiens, UniProt P18089) (assay: Adrenergic alpha2B radioligand binding ([3H]Rauwolscine)). Settings: compound at 1 μM; read-out: Adrenergic (1 μM) α2B, percent inhibition of specific binding.
T1 construct: expressed in transfected cells; host or cells: CHO-K1 cells
T1 sequence (P18089 1-450): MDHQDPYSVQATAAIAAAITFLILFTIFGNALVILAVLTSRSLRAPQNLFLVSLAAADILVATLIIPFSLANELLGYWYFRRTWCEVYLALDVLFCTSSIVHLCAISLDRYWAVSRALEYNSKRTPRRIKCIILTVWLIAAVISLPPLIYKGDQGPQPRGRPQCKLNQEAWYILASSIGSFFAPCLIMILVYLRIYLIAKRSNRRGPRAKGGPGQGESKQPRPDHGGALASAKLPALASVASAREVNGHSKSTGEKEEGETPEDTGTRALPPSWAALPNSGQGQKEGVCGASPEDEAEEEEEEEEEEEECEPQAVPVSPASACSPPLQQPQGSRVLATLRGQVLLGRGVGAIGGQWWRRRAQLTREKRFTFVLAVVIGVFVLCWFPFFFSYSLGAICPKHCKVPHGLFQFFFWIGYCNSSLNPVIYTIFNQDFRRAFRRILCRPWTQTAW
Protocol: To evaluate in radioligand binding assays the activity of compounds of the invention, human recombinant adrenergic α2B receptor expressed in Chinese hamster ovary (CHO-K1) cells (Uhlen S et al. Eur J. Pharmacol. 343(1):93, 1998) in a modified Tris-HCl buffer (50 mM Tris-HCl, pH 7.4, 12.5 mM MgCl2, 1 mM EDTA, 0.2% BSA) was used. Compounds of the invention were incubated with 2.5 nM [^3H]Rauwolscine for 60 min. at 25° C. Non-specific binding was estimated in the presence of 10 μM Prozosin. Receptor proteins were filtered and washed, the filters were then counted to determine [^3H]Rauwolscine specifically bound. Compounds were screened at 1 μM or lower, using 1% DMSO as vehicle. Biochemical assay results are presented as the percent inhibition of specific binding in Table 5.
In the case of `Cc1ccc(C(O)Cn2c3c(c4cc(Cl)ccc42)CCN(C)CC3)cn1` (stereo not drawn) [Compound No. 7, 2-(9-chloro-2,3,4,5-tetrahydro-3-methylazepino[4,5-b]indol-6(1H)-yl)-1-(6-methylpyridin-3-yl)ethanol], the inhibition at 1 µM was 101%.
In the case of `C/C(=C\n1c2c(c3cc(C)ccc31)CCN(C)CC2)c1ccc(F)cc1` [Compound No. 34, 6-((E)-2-(4-fluorophenyl)prop-1-enyl)-1,2,3,4,5,6-hexahydro-3,9-dimethylazepino[4,5-b]indole], the inhibition at 1 µM was 110%.
With `CN1CCc2c(n(CC(=O)N3CCCC3)c3ccc(Cl)cc23)CC1` [Compound No. 53, 2-(9-chloro-2,3,4,5-tetrahydro-3-methylazepino[4,5-b]indol-6(1H)-yl)-1-(pyrrolidin-1-yl)ethanone] the inhibition at 1 µM was 3%.
With `C/C(=C\n1c2c(c3cc(Cl)ccc31)CCN(C)CC2)c1ccc(Cl)cc1Cl` [Compound No. 239, (E)-9-chloro-6-(2-(2,4-dichlorophenyl)prop-1-enyl)-3-methyl-1,2,3,4,5,6-hexahydroazepino[4,5-b]indole] the inhibition at 1 µM was 107%.
`COc1ccc(C(O)Cn2c3c(c4cc(Cl)ccc42)CCN(C)CC3)c(F)c1` (stereo not drawn) [Compound No. 49, 2-(9-chloro-2,3,4,5-tetrahydro-3-methylazepino[4,5-b]indol-6(1H)-yl)-1-(2-fluoro-4-methoxyphenyl) ethanol] showed an inhibition at 1 µM of 106%.
Molecule `Cc1ccc2c(c1)c1c(n2CC(O)c2ccccc2F)CCN(C)CC1` (stereo not drawn) [Compound No. 41, 1-(2-fluorophenyl)-2-(2,3,4,5-tetrahydro-3,9-dimethylazepino[4,5-b]indol-6(1H)-yl)ethanol] has an inhibition at 1 µM of 104%.
For `CN1CCc2c(n(CC(O)c3ccc(Cl)cc3)c3ccc(Cl)cc23)CC1` (stereo not drawn) [Compound No. 16, 2-(9-chloro-2,3,4,5-tetrahydro-3-methylazepino[4,5-b]indol-6(1H)-yl)-1-(4-chlorophenyl)ethanol], the inhibition at 1 µM was 99%.
Work on `CN1CCc2c(n(CC(C)(O)c3ccc(F)cc3)c3ccc(Cl)cc23)CC1` (stereo not drawn) [Compound No. 13, 1-(9-chloro-2,3,4,5-tetrahydro-3-methylazepino[4,5-b]indol-6(1H)-yl)-2-(4-fluorophenyl)propan-2-ol] yielded an inhibition at 1 µM of 105%.
`CN1CCc2c(n(CC(=O)N3CCNCC3)c3ccc(Cl)cc23)CC1` [Compound No. 72, 2-(9-chloro-2,3,4,5-tetrahydro-3-methylazepino[4,5-b]indol-6(1H)-yl)-1-(piperazin-1-yl)ethanone] showed an inhibition at 1 µM of 7%.
`CN1CCc2c(n(CC(O)c3ccc(F)cc3)c3ccc(Cl)cc23)CC1` (stereo not drawn) [Compound No. 51, 2-(9-chloro-2,3,4,5-tetrahydro-3-methylazepino[4,5-b]indol-6(1H)-yl)-1-(4-fluorophenyl) ethanol] gave an inhibition at 1 µM of 103%.
`CN1CCc2c(n(CC(=O)OCc3ccccc3)c3ccc(Cl)cc23)CC1` [Compound No. 75, Benzyl-2-(9-chloro-2,3,4,5-tetrahydro-3-methylazepino[4,5-b]indol-6(1H)-yl)acetate] showed an inhibition at 1 µM of 21%.
`C/C(=C\n1c2c(c3cc(Cl)ccc31)CCN(C)CC2)c1ccc(Cl)cc1` [Compound No. 36, 9-chloro-6-((E)-2-(4-chlorophenyl)prop-1-enyl)-1,2,3,4,5,6-hexahydro-3-methylazepino[4,5-b]indole] gave an inhibition at 1 µM of 101%.
Work on `COc1ccc(C(O)Cn2c3c(c4cc(C)ccc42)CCN(C)CC3)c(F)c1` (stereo not drawn) [Compound No. 50, 1-(2-fluoro-4-methoxyphenyl)-2-(2,3,4,5-tetrahydro-3,9-dimethylazepino[4,5-b]indol-6(1H)-yl)ethanol] yielded an inhibition at 1 µM of 102%.
`C=C(Cn1c2c(c3cc(Cl)ccc31)CCN(C)CC2)c1ccc(Cl)cc1` [Compound No. 35, 9-chloro-6-(2-(4-chlorophenyl)allyl)-3-methyl-1,2,3,4,5,6-hexahydroazepino[4,5-b]indole] showed an inhibition at 1 µM of 112%.
`Cc1ccc2c(c1)c1c(n2/C=C/c2ccc(F)cc2)CCN(C)CC1` [Compound No. 39, 6-(4-fluorostyryl)-1,2,3,4,5,6-hexahydro-3,9-dimethylazepino[4,5-b]indole] showed an inhibition at 1 µM of 105%.
Molecule `CN1CCc2c(n(C#Cc3ccc(Cl)cc3)c3ccc(Cl)cc23)CC1` [Compound No. 282, 9-chloro-6-((4-chlorophenyl)ethynyl)-3-methyl-1,2,3,4,5,6-hexahydroazepino[4,5-b]indole] has an inhibition at 1 µM of 102%.
With `Cc1ccc2c(c1)c1c(n2CCc2ccc(C(F)(F)F)nc2)CCN(C)CC1` [Compound No. 20, 6-(2-(6-(trifluoromethyl)pyridin-3-yl)ethyl)-1,2,3,4,5,6-hexahydro-3,9-dimethylazepino[4,5-b]indole] the inhibition at 1 µM was 88%.
`CN1CCc2c(n(/C=C/c3ccc(F)c(F)c3)c3ccc(Cl)cc23)CC1` [Compound No. 236, (E)-9-chloro-6-(3,4-difluorostyryl)-3-methyl-1,2,3,4,5,6-hexahydroazepino[4,5-b]indole] was tested, and the inhibition at 1 µM was 103%.
`CN1CCc2c(n(CCc3ccccc3)c3ccc(Cl)cc23)CC1` [Compound No. 56, 9-chloro-1,2,3,4,5,6-hexahydro-3-methyl-6-phenethylazepino[4,5-b]indole] was tested, and the inhibition at 1 µM was 91%.
For `Cc1ccc2c(c1)c1c(n2CC(O)c2ccc(F)cc2F)CCN(C)CC1` (stereo not drawn) [Compound No. 59, 1-(2,4-difluorophenyl)-2-(2,3,4,5-tetrahydro-3,9-dimethylazepino[4,5-b]indol-6(1H)-yl)ethanol], the inhibition at 1 µM was 9%.
`CN1CCc2c(n(CC(O)c3ccccc3F)c3ccc(Cl)cc23)CC1` (stereo not drawn) [Compound No. 40, 2-(9-chloro-2,3,4,5-tetrahydro-3-methylazepino[4,5-b]indol-6(1H)-yl)-1-(2-fluorophenyl)ethanol] gave an inhibition at 1 µM of 101%.
Work on `COc1ccc(C(O)Cn2c3c(c4cc(C)ccc42)CCN(C)CC3)cc1F` (stereo not drawn) [Compound No. 68, 1-(3-fluoro-4-methoxyphenyl)-2-(2,3,4,5-tetrahydro-3,9-dimethylazepino[4,5-b]indol-6(1H)-yl)ethanol] yielded an inhibition at 1 µM of 100%.
`CN1CCc2c(n(CC(=O)Nc3ccc(F)cc3)c3ccc(Cl)cc23)CC1` [Compound No. 37, 2-(9-chloro-2,3,4,5-tetrahydro-3-methylazepino[4,5-b]indol-6(1H)-yl)-N-(4-fluorophenyl) acetamide] was tested, and the inhibition at 1 µM was 70%.
`Cc1ccc2c(c1)c1c(n2CC(O)c2ccc(Cl)cc2)CCN(C)CC1` (stereo not drawn) [Compound No. 17, 1-(4-chlorophenyl)-2-(2,3,4,5-tetrahydro-3,9-dimethylazepino[4,5-b]indol-6(1H)-yl)ethanol] was tested, and the inhibition at 1 µM was 99%.
`C/C(=C\n1c2c(c3cc(C)ccc31)CCN(C)CC2)c1ccc(Cl)cc1Cl` [Compound No. 238, (E)-6-(2-(2,4-dichlorophenyl)prop-1-enyl)-3,9-dimethyl-1,2,3,4,5,6-hexahydroazepino[4,5-b]indole] was tested, and the inhibition at 1 µM was 103%.
In the case of `Cc1ccc2c(c1)c1c(n2CC(=O)N2CCCCC2)CCN(C)CC1` [Compound No. 32, 2-(2,3,4,5-tetrahydro-3,9-dimethylazepino[4,5-b]indol-6(1H)-yl)-1-(piperidin-1-yl)ethanone], the inhibition at 1 µM was 22%.
For `CN1CCc2c(n(CC(O)c3ccc(F)c(F)c3)c3ccc(Cl)cc23)CC1` (stereo not drawn) [Compound No. 58, 2-(9-chloro-2,3,4,5-tetrahydro-3-methylazepino[4,5-b]indol-6(1H)-yl)-1-(3,4-difluorophenyl)ethanol], the inhibition at 1 µM was 10%.
